The source of these data is publication PMC3319192 (Molecular Pharmaceutics, 2012).

In one series the target is T1, wildtype OATP1B3 (Homo sapiens, UniProt Q9NPD5).
T1 sequence (Q9NPD5 1-702): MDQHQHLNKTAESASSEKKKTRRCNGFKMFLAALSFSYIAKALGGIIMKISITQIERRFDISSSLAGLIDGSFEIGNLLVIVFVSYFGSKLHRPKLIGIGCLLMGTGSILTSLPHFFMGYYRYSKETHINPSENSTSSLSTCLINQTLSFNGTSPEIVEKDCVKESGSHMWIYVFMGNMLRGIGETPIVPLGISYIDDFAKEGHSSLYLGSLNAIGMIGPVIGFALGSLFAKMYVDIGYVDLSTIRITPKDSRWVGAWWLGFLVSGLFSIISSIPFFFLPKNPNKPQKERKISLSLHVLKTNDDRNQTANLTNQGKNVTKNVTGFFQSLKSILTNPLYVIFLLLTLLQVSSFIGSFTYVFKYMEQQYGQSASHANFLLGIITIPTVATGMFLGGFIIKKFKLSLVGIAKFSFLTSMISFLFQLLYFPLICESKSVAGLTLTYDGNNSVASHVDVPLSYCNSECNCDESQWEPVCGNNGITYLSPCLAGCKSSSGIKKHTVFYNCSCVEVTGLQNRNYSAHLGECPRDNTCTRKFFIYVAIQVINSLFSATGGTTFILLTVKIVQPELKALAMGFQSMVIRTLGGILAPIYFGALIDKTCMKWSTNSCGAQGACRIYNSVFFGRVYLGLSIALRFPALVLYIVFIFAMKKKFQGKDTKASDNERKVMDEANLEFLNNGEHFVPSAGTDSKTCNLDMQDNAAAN

The target in a further series is T2, OATP1B1 A45G/L545S/T615I (Homo sapiens, UniProt Q9Y6L6, A45G/L545S/T615I).
T2 sequence (Q9Y6L6 1-691 A45G/L545S/T615I): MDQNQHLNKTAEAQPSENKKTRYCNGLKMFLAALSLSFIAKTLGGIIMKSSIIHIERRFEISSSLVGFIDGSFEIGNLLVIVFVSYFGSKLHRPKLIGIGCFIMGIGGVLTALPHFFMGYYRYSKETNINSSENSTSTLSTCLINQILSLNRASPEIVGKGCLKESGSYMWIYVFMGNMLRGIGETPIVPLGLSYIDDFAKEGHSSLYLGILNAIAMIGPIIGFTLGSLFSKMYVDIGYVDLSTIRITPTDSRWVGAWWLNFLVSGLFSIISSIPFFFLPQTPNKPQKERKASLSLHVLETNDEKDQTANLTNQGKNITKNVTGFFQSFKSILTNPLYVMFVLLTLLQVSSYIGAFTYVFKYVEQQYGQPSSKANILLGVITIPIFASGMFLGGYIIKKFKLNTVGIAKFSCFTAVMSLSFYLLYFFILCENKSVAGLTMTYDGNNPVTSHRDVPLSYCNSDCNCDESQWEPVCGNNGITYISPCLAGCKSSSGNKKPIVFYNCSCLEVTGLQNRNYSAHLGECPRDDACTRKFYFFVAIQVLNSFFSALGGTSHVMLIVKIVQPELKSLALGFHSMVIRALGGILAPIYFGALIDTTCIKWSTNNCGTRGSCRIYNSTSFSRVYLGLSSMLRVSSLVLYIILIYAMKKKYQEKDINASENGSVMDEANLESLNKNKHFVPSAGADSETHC

On to “L-aspartyl-L-tryosyl-L-methionylgylcyl-L-tryptophyl-L-methionyl-L-aspartyl-L-phenylalaninamide hydrogen sulfate ester [CCK-8]”, for which the Michaelis-Menten constant (Km) (as a rule, the concentration of substrate that gives half-maximal velocity) at wildtype OATP1B3 worked out at 6.5 ± 2 µM; on OATP1B1 A45G/L545S/T615I, 15.4 ± 4.2 µM.
